In patent US20190142721A1, “COMPOSITION CONTAINING SUBSTANCE FOR REGULATING EXPRESSON OF ABH ANTIGENS” (AMOREPACIFIC CORPORATION, priority 2014, published 2019):

How the values were obtained:
skin pore size = experiment: Effect of reducing skin pores in rhino mice; assay type: in vivo; details: 0.5 ml of 1% solution applied to rhino mice for 1 week; control group (solvent) 65
Description: At this time, for comparison, only 0.5 ml of solvent was applied to one group. The substances were treated for 1 week and the back part was biopsied 24 hours after the last treatment. The epidermis was separated, immersed in 0.5% acetic acid, fixed in 10% formalin and cut vertically at […]. After staining with hematoxylin and eosin, the skin pore size was measured using a mechanical eyepiece micrometer.

B antigen (ABH antigen) = experiment: Effect of increasing the expression of B antigen in HaCaT cell line (western blot); assay type: cell-based; details: HaCaT cells, 2 μg/ml, 48 hours; for expression of B type antigen: western blot, FIG. 2; for expression of ABH antigen: data not shown
Description: The effect of various kinds of compounds on the expression of ABH antigen was examined. For this purpose, HaCaT cells (provided by Prof. Dr. N E Fusenig, DKFZ Heidelberg, Germany) were cultured in 10% FBS-DMEM for 24 hours in a 35 mm dish and then cultured in 0% FBS-DMEM for 24 hours to make to a starvation state.
Again, while replacing the medium with 0% FBS-DMEM, various kinds of compounds as test substances were treated with HaCaT cells at a concentration of 2 μg/ml, respectively, and cultured for 48 hours. At this time, for comparison, the control group was treated with DMSO at the same concentration as the sample. […] In case where these three compounds were treated, proteins were extracted from the cells, the cell lysate was loaded in the same amount, and then the expression of type B antigen was examined by western blot. Alpha-tubulin protein was used as a control group.

[1] = tested on: reactive oxygen species (ROS); experiment: Inhibition of formation of reactive oxygen species in UVB-exposed keratinocytes (DCF-DA fluorescence); assay type: cell-based, human; details: 2 μg/ml; for ROS, ratio to the ROS of the control group, 0 hr: 0 hr after exposure to 30 mJ/cm^2 of UVB, UVB + untreated 100; for ROS, ratio to the ROS of the control group, 2 hrs: 2 hrs after exposure to 30 mJ/cm^2 of UVB, UVB + untreated 325, untreated 244; for ROS, ratio to the ROS of the control group, 3 hrs: 3 hrs after exposure to 30 mJ/cm^2 of UVB, UVB + untreated 381, untreated 287
Description: 5×10^4 cells of Keratinocytes isolated from the human epidermal tissue were put in each well of a 24-well plate and immobilized for 24 hours. After the culture medium was removed, 100 μl of phosphate buffered saline (PBS) solution was added to each well. The keratinocytes were exposed to 30 mJ/cm^2 of ultraviolet radiation under an ultraviolet B (UV B) lamp (Model: F15T8, UV B 15 W, Sankyo Denki Co., Ltd., Japan). Each well was removed of the PBS solution and then supplied with 200 μl1 of the keratinocyte culture medium. The well was treated with 2 μg/ml of 1,3-dicaffeoylquinic acid, 1,5-dicaffeoylquinic acid and amentoflavone as the test substances, respectively. Then, the quantity of the reactive oxygen species (ROS) increased by the UV stimulation was determined at defined time intervals. At this time, for comparison, the quantity of reactive oxygen species was also measured for those not treated with test substance (untreated) and not stimulated with ultraviolet rays and those subjected to ultraviolet stimulation without treatment of the test substance. The quantity of ROS was quantified by referring to Tan's method for measuring the fluorescence of dichlorofluorescin diacetate (DCF-DA) oxidized by ROS (Tan et al., 1998, J. Cell Biol. Vol. 141, pp 1423-1432).

5α-reductase = biological target: T1, 5α-reductase (Homo sapiens, UniProt P31213); experiment: Inhibitory effect on 5α-reductase activity: conversion of [14C]testosterone to [14C]dihydrotestosterone in HEK 293-5α R2 cells; assay type: cell-based; details: for Inhibition rate (%) / Conversion rate (%): 2 μg/ml, 2 hours, HEK 293-5α R2 cells; for Inhibition rate (%): relative to conversion rate of control group; for Conversion rate (%): radioactivity at DHT region/total radioactivity, control group 48
T1 construct: 3×FLAG; expressed in transfected cells; host or cells: HEK 293
T1 sequence (P31213 1-254): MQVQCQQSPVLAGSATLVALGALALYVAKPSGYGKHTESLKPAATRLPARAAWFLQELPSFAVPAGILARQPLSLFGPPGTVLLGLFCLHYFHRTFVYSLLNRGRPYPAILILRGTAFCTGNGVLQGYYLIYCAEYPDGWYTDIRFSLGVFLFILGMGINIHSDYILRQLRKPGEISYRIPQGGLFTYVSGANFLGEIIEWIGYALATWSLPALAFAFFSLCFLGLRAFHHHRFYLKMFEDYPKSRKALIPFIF
Description: In order to evaluate the inhibitory effect on the activity of 5α-reductase, the conversion rate from [^14C] testosterone to [^14C] dihydrotestosterone in HEK 293-5α R2 cells was measured. HEK 293 cells were transfected with p3×FLAG-CMV-5α R2, and the transfected HEK 293 cells (HEK 293-5α R2 cells) were seeded in a 24-well plate, 2.5×10^5 cells per well (Park et al., 2003, JDS. Vol. 31, pp 191-98). The next day, the used culture medium was replaced with a new culture medium containing an enzyme substrate and an inhibitor. The substrate of the culture medium used was 0.05 μCi [^14C]testosterone (Amersham Pharmacia Biotech, UK). […] At this time, for comparison, the negative control used was the group not containing any of the above test substances, while the positive control used was the group in which finasteride was added to the medium at 2 μg/ml and cultured under the same conditions. Subsequently, the culture medium was collected to extract estosterone with 800 μl of ethylacetate. The supernatant organic solvent phase was isolated and dried. The residue was dissolved in 50 μl of ethylacetate and developed on silica plastic sheet kieselgel 60 F254 using an ethylacetate-hexane (1:1) as a developing solvent. The plastic sheet was dried out in the air and measured in regards to the abundance of isotope using a BAS system. The dry plastic sheet together with an X-ray film was put in a bath cassette. After one week, the amount of isotope of testosterone and dihydrotestosterone remaining on the film was measured.

procollagen type(I) = experiment: Promotion of collagen biosynthesis in fibroblasts (procollagen type(I) ELISA); assay type: cell-based; details: 2 μg/ml, 24 hours, untreated group as 100
Description: The collagen biosynthesis promoting effect of 1,3-dicaffeoylquinic acid, 1,5-dicaffeoylquinic acid and amentoflavone used in the present invention was measured in comparison with TGF-β.
First, 1×10^5 cells of fibroblasts were seeded in each well of a 24-well plate and cultured until they grew to about 90%. This was cultured in a serum-free DMEM medium for 24 hours and then treated with 2 μg/ml of 1,3-dicaffeoylquinic acid, 1,5-dicaffeoylquinic acid, amentoflavone and TGF-β, respectively, and cultured for 24 hours in a CO2 incubator. These supernatant fluids were removed and the procollagen type(I) ELISA kit was used to observe whether procollagen was increased or decreased. The results are shown in Table 6, and the collagen synthesis ability was compared with the untreated group as 100.

PGE-2 = experiment: Decrease in expression of skin inflammatory factor PGE-2 in UVB-exposed keratinocytes (ELISA); assay type: cell-based, human; details: 2 μg/ml, 16 hours, keratinocytes after UVB exposure
Description: In order to measure the effect of suppressing the expression of PGE-2 which is a skin inflammatory factor of 1,3-dicaffeoylquinic acid, 1,5-dicaffeoylquinic acid and amentoflavone of the present invention, ELISA (Enzyme Linked ImmunoSorbent Assay) was performed (S E Dunsmore, et al., J Biol Chem, 271: 24576-24582, 1996).
5×10^4 cells of keratinocytes isolated from human epidermal tissue were put in each well of a 24-well plate and immobilized for 24 hours. The culture medium was replaced with a medium not containing FBS and treated with aspirin to remove the activity of prostaglandin biosynthetic enzyme (prostaglandin H2 synthetase, or cyclooxygenase). Two hours after aspirin treatment, each well containing keratinocytes was washed twice with PBS to which 100 μl of PBS was added to each well. The keratinocytes were exposed to […] of ultraviolet radiation under an ultraviolet B (UV B) lamp (Model: F15T8, UV B15W, Sankyo Dennki, Japan). Each well was removed of PBS and supplied with 250 ul of the keratinocyte growth media (Clonetics BioWhittacker, MD, USA).
Here, the substances 1,3-dicaffeoylquinic acid, 1,5-dicaffeoylquinic acid and amentoflavone were treated at a dose of 2 μg/ml, followed by culturing for 16 hours. By taking an appropriate amount of culture supernatant and quantifying PGE-2 biosynthesized for 16 hours, the prostaglandin inhibitory effects of 1,3-dicaffeoylquinic acid, 1,5-dicaffeoylquinic acid and amentoflavone was evaluated. The expression inhibitory effect of PGE-2 was calculated by the following mathematical formula 1, and the results are shown in Table 4 below.
Expression inhibition rate of PGE-2(%)=(A−B)/A*100 [Mathematical Formula 1]
A: Absorbance of well to which test substance was not added
B: Absorbance of the well to which test substance was added

| SMILES | Skin Pore size (µm) (skin pore size) | expression of B type antigen (B antigen (ABH antigen)) | expression of ABH antigen (B antigen (ABH antigen)) | ROS, ratio to the ROS of the control group, 0 hr [1] | ROS, ratio to the ROS of the control group, 2 hrs [1] | ROS, ratio to the ROS of the control group, 3 hrs [1] | Inhibition rate (%) (5α-reductase) | Conversion rate (%) (5α-reductase) | Collagen synthesis ability (%) (procollagen type(I)) | PGE-2 expression inhibition rate(%) (PGE-2) | inhibition at 2 µg/mL (5α-reductase; HEK2935, read-out: Inhibition rate (%)) [%] |
| --- | --- | --- | --- | --- | --- | --- | --- | --- | --- | --- | --- |
| O=C(/C=C/c1ccc(O)c(O)c1)OC1CC(OC(=O)/C=C/c2ccc(O)c(O)c2)(C(=O)O)CC(O)C1O (centres unmarked) [1,3-dicaffeoylquinic acid] | 53 | increasing the expression of B type antigen | significantly increase the expression of ABH antigen | 100 | 277 | 319 | 38 | 30 | 142.1 ± 13.1 | 28.1 | – |
| O=C(/C=C/c1ccc(O)c(O)c1)O[C@@H]1C[C@](OC(=O)/C=C/c2ccc(O)c(O)c2)(C(=O)O)C[C@@H](O)[C@H]1O [1,5-dicaffeoylquinic acid] | 54 | increasing the expression of B type antigen | significantly increase the expression of ABH antigen | 100 | 280 | 315 | 38 | 30 | 144.2 ± 11.0 | 32.5 | – |
| O=C(O[C@@H]1Cc2c(O)cc(O)cc2O[C@@H]1c1cc(O)c(O)c(O)c1)c1cc(O)c(O)c(O)c1 [EGCG, reference compound] | 60 | – | – | – | – | – | – | – | – | – | – |
| CC(C)(C)NC(=O)[C@H]1CC[C@H]2[C@@H]3CC[C@H]4NC(=O)C=C[C@]4(C)[C@H]3CC[C@]12C [Finasteride, finasteride, reference compound] | – | – | – | – | – | – | – | 27 | – | – | – |
| O=c1cc(-c2ccc(O)c(-c3c(O)cc(O)c4c(=O)cc(-c5ccc(O)cc5)oc34)c2)oc2cc(O)cc(O)c12 [amentoflavone] | 50 | increasing the expression of B type antigen | significantly increase the expression of ABH antigen | 100 | 288 | 320 | – | 32 | 147.7 ± 15.8 | 30.9 | 33 |
